# Laboratory results from patent publication US6379670B1, “Methods for treatment of multiple sclerosis using peptide analogs of human myelin basic protein” (Neurocrine Biosciences, Inc., priority 1994, dated 2002).
# “Also recorded” adds a separate entry of the source. Non-standard residues stand in square brackets, D forms with d. No end group written: not given here.
# Tests used:
# [1] = tested on: EAE in Lewis rats; assay: Treatment of MBP(83-99)-induced EAE in Lewis rats with peptide analogs (subcutaneous); type: in vivo, Lewis rat
# Experimental: In this system, experimental allergic encephalomyelitis (EAE) was induced in twelve female Lewis rats by injection of MBP(83-99) peptide in complete Freund's adjuvant (CFA) at the base of the tail. Nine days later, rats were divided into two groups of six animals and subcutaneously injected with 13.2 mg/kg of either peptide analog or a control peptide, sperm whale myoglobin (SWM) (110-121). Animals were monitored daily for disease symptoms and scored in a blinded fashion on a nonlinear ascending scale of 0-4 with increments denoting increasing paralysis. Each individual score was averaged with group cohorts to obtain the mean clinical score.
# [2] = tested on: peripheral blood T cells of MS patients; assay: Frequency of antigen-reactive peripheral blood T cells after NBI-5788 treatment of MS patients (split-well); type: in vivo, human
# Experimental: MS patients studied were those participating in phase I clinical trials using NBI-5788 administered subcutaneously (5, 10 or 20 mg) weekly for four weeks. Patients had MRI evaluations performed at baseline and at 6 and 12 weeks. All but 1 patient had secondary or primary progressive disease (SP or PP, respectively). For patients in group A, immunologic evaluations involving use of NBI-5788 as antigen could be performed only 9 months after completion of the treatment phase of the study. For patients in group B, immunologic evaluation was performed just prior to entry into the study (pre-treatment) and after 3 months following completion of the 1 month treatment phase. Two additional patients with SP MS, one with relapsing remitting (RR) MS and 3 normal controls were also studied.
# Immune response to the peptide analog was assessed by measuring the frequency of proliferating peripheral blood T cells using a split-well microtiter method (i.e., number of positive wells {Δ cpm >1000, stimulation index>3} divided by the total number of wells assayed). Peripheral blood mononuclear cells (PBMC) were isolated from venous blood by Ficoll-Hypaque density gradient centrifugation, washed twice and resuspended in complete tissue culture medium (Iscove's modification of Dulbecco's medium containing 10% heat-inactivated, pooled, human A-B serum, 2 mM L-glutamine, 100 U/ml penicillin/streptomycin and 50 μg/ml gentamycin). PBMC from each patient were seeded at 10^5/well in 96 well, U-bottom microtiter plates containing 25 μg/ml whole MBP, 10 μg/ml NBI-5788 or medium alone in a volume of 200 μl. Three days later supernatants were collected and frozen at −80° C. and fresh medium containing IL-2 (10 U/ml) was added. IL-2-containg medium was refreshed on Day 7 and Day 11. On Day 14, the frequency of antigen response was determined by the “split well” technique. Briefly, cells from one primary well were split into replicate experimental wells in the presence of 10^5 freshly isolated autologous, irradiated peripheral blood mononuclear cells (APCs): one containing the original antigen (25 μg/ml) and one without antigen. Two days later supernatants were collected and the wells pulsed with 1 µCi/well [^3H]-thymidine ([…]) for the final 18 hours of culture. ^3H-Thymidine uptake was measured in a beta counter. […] The association between T cell frequency and NBI-5788 treatment was evaluated by χ^2 contingency analysis.
# [3] = tested on: T cell lines LW 80, 88, 90 and 93; assay: Specificity and phenotype of APL-reactive T cell lines from patient; type: cell-based, human; details: 25 μg/ml antigen
# Experimental: Four cell cultures from one patient ([…], 32% frequency) showing a response (> three-fold over background) were expanded into cell lines (LW 80, 88, 90 and 93) by incubation in IL-2 for 11-14 days (1-2 passages). Once sufficient cells had grown up, they were cultured with either medium alone or 25 μg/ml of either whole MBP, MBP (83-99) or APL NBI-5788. After 24 hours, the supernatants were collected and the level of cytokines determined (see FIGS. 22 to 26). The remaining cultures were pulsed with radiolabeled thymidine and the extent of incorporation determined.
substance,measurement,setting,value
"MBP(83-99) (83E>a, 84N>K, 89F>L, and 91K>A) ([dA]KPVVHLFANIVTPRTP) [NBI-5788]",reduction of disease severity compared to the control group,"[1]; 13.2 mg/kg subcutaneously on day 9, FIG. 9",about 50%
same,effect on EAE disease severity versus control peptide,"[1]; 13.2 mg/kg subcutaneously on day 9, FIGS. 10 and 11",significantly reduced the severity and duration of the disease
same,mean frequency of NBI-5788-reactive T cells after treatment,"[2]; 5, 10 or 20 mg, four times weekly, seven MS patients",35.8±12.8%
same,mean frequency of MBP-reactive T cells after treatment,[2]; after treatment with NBI-5788 (n=7),16.4±5.7%
same,change of frequency of MBP-reactive T cells following administration,"[2]; human, in vivo",does not change markedly
same,change of NBI-5788-reactive T cells in peripheral blood after subcutaneous administration versus untreated MS patients,"[2]; human, in vivo, sc","significant (χ^2=82.7, p<0.001) increase; also recorded: strongly induced"
same,thymidine incorporation of T cell line,[3]; Line 80 of patient,"25,696 ± 408 cpm"
same,thymidine incorporation of T cell line,[3]; Line 88 of patient,"11,603 ± 424 cpm"
same,thymidine incorporation of T cell line,[3]; Line 90 of patient,"25,317 ± 8,221 cpm"
same,thymidine incorporation of T cell line,[3]; Line 93 of patient,"16,197 ± 2,095 cpm"
